Source: patent publication US20060030616A1, “Anhydride modified cantharidin analogues useful in the treatment of cancer” (priority 1998, published 2006)

Columns and labels:
HCT116 cells [1] = assay: Checkpoint abrogation after 6 Gy radiation, flow cytometry; type: cell-based, human; conditions: 12 h after drug
Description: (§1) The cells are fixed in 70% ethanol and stored at −20° C. until analysis is performed (1-2 weeks). After fixing, the cells are pelleted and incubated in PBS containing propidium iodide ([…]) and RNase A (200 mg/ml) for at least 30 min at room temperature. The samples (2×10^4 events) are analysed using a Becton Dickson FACScan, fluorescence is collected in fluorescence detector 2 (FL2), filter 575/30 nm band pass. Cell cycle distribution is assessed using Cell Quest software (Becton Dickson).
(§2) The ability of the protein phosphatase inhibitors to abrogate the G1 or G2 checkpoint of the cell cycle may be determined by cell cycle analysis using flow cytometry. Briefly, asynchronous cell cultures are harvested 18 h after 6 Gy irradiation and/or 12 h incubation with the protein phosphatase inhibitor. Depending upon the p53 status of the cell line, radiation treatment alone will induce arrest in either G1 and/or G2 phase of the cell cycle.
(§3) If the protein phosphatase inhibitor abrogates the G2 checkpoint then the cells will not arrest in the G2 phase of the cell cycle and the cells will continue through the cell cycle and accumulate in the G1 phase of the cell cycle only. Similarily if the protein phosphatase inhibitors abrogates the G1 checkpoint then the cells will not arrest in the G1 phase of the cell cycle and accumulate in the G2 phase of the cell cycle only. Cell cycle analysis using propidium iodide labelling of DNA has been used extensively in our laboratory to assess the effect of specific anticancer agents that induce S-phase cell cycle arrest and apoptotic cell death (Sakoff, Ackland and Stewart, 1998). Experiments were performed on a Becton Dickinson FACScan and using Cell Quest software.
(§4) The cells were treated with 6 Gy of radiation and then treated with cantharidin 6 h later. The ability to abrogate cell cycle arrest was assessed is 12 h after the addition of the drugs.

HT29 cells [2] = assay: as above; type: cell-based, human; conditions: 12 h after drug
Description: as §1, §2, §3, §4

HL60 cells = assay: as above; type: cell-based, human; conditions: 12 h after drug
Description: as §1, §2, §3, §4

L1210 cells = assay: as above; type: cell-based, murine; conditions: 12 h after drug
Description: as §1, §2, §3, §4

HCT116 cells [3] = assay: Cell cycle analysis, flow cytometry of propidium iodide stained cells; type: cell-based, human
Description: as §1, §2
(§5) Data shown in Table 2 and FIG. 4 show the cell cycle response of L1210, HL60, HT29 and HCT116 cells to cantharidin and the new cantharidin analogues MK-2 and MK-4 after 12 h exposure. In summary, cantharidin and MK-2 produced a similar response and induced G2 arrest in all four cell lines tested. […] HL60 and HCT116 cells. […] The magnitude of the cell cycle arrest induced by these drugs directly correlated with their cytotoxicity in the respective cell lines. […] The cytotoxicity of the […]

HT29 cells [4] = assay: as above; type: cell-based, human; conditions: for Cell Cycle Distribution, G1 / Cell Cycle Distribution, G2 + M / Cell Cycle Distribution, S / Cell Cycle Distribution, sub G1 / Cell cycle remark: 12 h
Description: as §1, §2, §5

## C[C@@]12C(=O)OC(=O)[C@]1(C)[C@H]1CC[C@@H]2O1 [Cantharidin, exo.exo-2.3-dimethyl-7-oxobicyclo[2.2.1]heptane-2,3-dicarboxylic acid anhydride]
HCT116 cells [1]; HCT116, 1 μM, 18 h after 6Gy
  Cell Cycle Distribution, G1: 26.1 percentage of total
  Cell Cycle Distribution, G2 + M: 58.2 percentage of total
  Cell Cycle Distribution, S: 13.8 percentage of total
  Cell Cycle Distribution, sub G: 4.2 percentage of total
HCT116 cells [1]; HCT116, 5 μM, 18 h after 6Gy
  Cell Cycle Distribution, G1: 23.6 percentage of total
  Cell Cycle Distribution, G2 + M: 63.3 percentage of total
  Cell Cycle Distribution, S: 10.4 percentage of total
  Cell Cycle Distribution, sub G: 4.0 percentage of total
HCT116 cells [1]; HCT116, 10 μM, 18 h after 6Gy
  Cell Cycle Distribution, G1: 25.7 percentage of total
  Cell Cycle Distribution, G2 + M: 62.2 percentage of total
  Cell Cycle Distribution, S: 9.4 percentage of total
  Cell Cycle Distribution, sub G: 4.2 percentage of total
HCT116 cells [1]; HCT116, 50 μM, 18 h after 6Gy
  Cell Cycle Distribution, G1: 12.2 percentage of total
  Cell Cycle Distribution, G2 + M: 63.3 percentage of total
  Cell Cycle Distribution, S: 15.6 percentage of total
  Cell Cycle Distribution, sub G: 12.0 percentage of total
  Checkpoint remark: G1 abrogation
HCT116 cells [1]; HCT116, 6 Gy
  Checkpoint abrogation: abrogated radiation induced G1 arrest
HT29 cells [2]; HT29, 1 μM, 18 h after 6Gy
  Cell Cycle Distribution, G1: 35.2 percentage of total
  Cell Cycle Distribution, G2 + M: 38.2 percentage of total
  Cell Cycle Distribution, S: 10.6 percentage of total
  Cell Cycle Distribution, sub G: 16.6 percentage of total
HT29 cells [2]; HT29, 5 μM, 18 h after 6Gy
  Cell Cycle Distribution, G1: 38.6 percentage of total
  Cell Cycle Distribution, G2 + M: 46.3 percentage of total
  Cell Cycle Distribution, S: 10.6 percentage of total
  Cell Cycle Distribution, sub G: 5.3 percentage of total
HT29 cells [2]; HT29, 10 μM, 18 h after 6Gy
  Cell Cycle Distribution, G1: 21.1 percentage of total
  Cell Cycle Distribution, G2 + M: 60.8 percentage of total
  Cell Cycle Distribution, S: 12.3 percentage of total
  Cell Cycle Distribution, sub G: 6.4 percentage of total
HT29 cells [2]; HT29, 50 μM, 18 h after 6Gy
  Cell Cycle Distribution, G1: 23.0 percentage of total
  Cell Cycle Distribution, G2 + M: 43.1 percentage of total
  Cell Cycle Distribution, S: 20.7 percentage of total
  Cell Cycle Distribution, sub G: 14.7 percentage of total
  Checkpoint remark: G1 abrogation
HT29 cells [2]; HT29, 6 Gy
  Checkpoint abrogation: abrogated radiation induced G1 arrest
HL60 cells; HL60, 1 μM, 18 h after 6Gy
  Cell Cycle Distribution, G1: 5.2 percentage of total
  Cell Cycle Distribution, G2 + M: 85.8 percentage of total
  Cell Cycle Distribution, S: 3.0 percentage of total
  Cell Cycle Distribution, sub G: 6.2 percentage of total
HL60 cells; HL60, 5 μM, 18 h after 6Gy
  Cell Cycle Distribution, G1: 5.7 percentage of total
  Cell Cycle Distribution, G2 + M: 86.8 percentage of total
  Cell Cycle Distribution, S: 3.5 percentage of total
  Cell Cycle Distribution, sub G: 4.4 percentage of total
HL60 cells; HL60, 10 μM, 18 h after 6Gy
  Cell Cycle Distribution, G1: 5.6 percentage of total
  Cell Cycle Distribution, G2 + M: 85.1 percentage of total
  Cell Cycle Distribution, S: 4.3 percentage of total
  Cell Cycle Distribution, sub G: 5.3 percentage of total
HL60 cells; HL60, 50 μM, 18 h after 6Gy
  Cell Cycle Distribution, G1: 10.2 percentage of total
  Cell Cycle Distribution, G2 + M: 64.9 percentage of total
  Cell Cycle Distribution, S: 11.3 percentage of total
  Cell Cycle Distribution, sub G: 14.3 percentage of total
  Checkpoint remark: Cell Death
HL60 cells; HL60, 6 Gy
  Checkpoint abrogation: abrogated radiation induced G1 arrest
L1210 cells; L1210, 1 μM, 18 h after 6Gy
  Cell Cycle Distribution, G1: 27.2 percentage of total
  Cell Cycle Distribution, G2 + M: 37.5 percentage of total
  Cell Cycle Distribution, S: 25.6 percentage of total
  Cell Cycle Distribution, sub G1: 1.6 percentage of total
L1210 cells; L1210, 5 μM, 18 h after 6Gy
  Cell Cycle Distribution, G1: 25.8 percentage of total
  Cell Cycle Distribution, G2 + M: 41.5 percentage of total
  Cell Cycle Distribution, S: 31.9 percentage of total
  Cell Cycle Distribution, sub G1: 2.4 percentage of total
L1210 cells; L1210, 10 μM, 18 h after 6Gy
  Cell Cycle Distribution, G1: 24.9 percentage of total
  Cell Cycle Distribution, G2 + M: 43.7 percentage of total
  Cell Cycle Distribution, S: 29.4 percentage of total
  Cell Cycle Distribution, sub G1: 3.4 percentage of total
L1210 cells; L1210, 50 μM, 18 h after 6Gy
  Cell Cycle Distribution, G1: 4.1 percentage of total
  Cell Cycle Distribution, G2 + M: 77.4 percentage of total
  Cell Cycle Distribution, S: 15.6 percentage of total
  Cell Cycle Distribution, sub G1: 4.9 percentage of total
  Checkpoint remark: G1 abrogation
L1210 cells; L1210, 6 Gy
  Checkpoint abrogation: abrogated radiation induced G1 arrest
HCT116 cells [3]; HCT116, 1 μM, 12 h
  Cell Cycle Distribution, G1: 39.9 percentage of total
  Cell Cycle Distribution, G2 + M: 41.9 percentage of total
  Cell Cycle Distribution, S: 17.2 percentage of total
  Cell Cycle Distribution, sub G1: 2.2 percentage of total
HCT116 cells [3]; HCT116, 5 μM, 12 h
  Cell Cycle Distribution, G1: 39.9 percentage of total
  Cell Cycle Distribution, G2 + M: 41.8 percentage of total
  Cell Cycle Distribution, S: 16.8 percentage of total
  Cell Cycle Distribution, sub G1: 2.9 percentage of total
HCT116 cells [3]; HCT116, 10 μM, 12 h
  Cell Cycle Distribution, G1: 38.0 percentage of total
  Cell Cycle Distribution, G2 + M: 42.0 percentage of total
  Cell Cycle Distribution, S: 14.9 percentage of total
  Cell Cycle Distribution, sub G1: 6.2 percentage of total
HCT116 cells [3]; HCT116, 50 μM, 12 h
  Cell Cycle Distribution, G1: 25.1 percentage of total
  Cell Cycle Distribution, G2 + M: 48.1 percentage of total
  Cell Cycle Distribution, S: 17.8 percentage of total
  Cell Cycle Distribution, sub G1: 11.1 percentage of total
  Cell cycle remark: G2 arrest
HCT116 cells [3]; HCT116, 12 h exposure
  Cell cycle response: G2 arrest
HT29 cells [4]; HT29, 1 μM
  Cell Cycle Distribution, G1: 46.2 percentage of total
  Cell Cycle Distribution, G2 + M: 37.4 percentage of total
  Cell Cycle Distribution, S: 7.8 percentage of total
  Cell Cycle Distribution, sub G1: 9.0 percentage of total
HT29 cells [4]; HT29, 5 μM
  Cell Cycle Distribution, G1: 47.4 percentage of total
  Cell Cycle Distribution, G2 + M: 39.8 percentage of total
  Cell Cycle Distribution, S: 9.3 percentage of total
  Cell Cycle Distribution, sub G1: 4.0 percentage of total
HT29 cells [4]; HT29, 10 μM
  Cell Cycle Distribution, G1: 42.7 percentage of total
  Cell Cycle Distribution, G2 + M: 40.3 percentage of total
  Cell Cycle Distribution, S: 14.6 percentage of total
  Cell Cycle Distribution, sub G1: 2.8 percentage of total
  Cell cycle remark: G2 arrest
HT29 cells [4]; HT29, 50 μM
  Cell Cycle Distribution, G1: 46.0 percentage of total
  Cell Cycle Distribution, G2 + M: 26.0 percentage of total
  Cell Cycle Distribution, S: 14.7 percentage of total
  Cell Cycle Distribution, sub G1: 15.1 percentage of total
  Cell cycle remark: Cell Death
HT29 cells [4]; HT29, 12 h exposure
  Cell cycle response: G2 arrest
